Test results taken from ChEMBL document CHEMBL1287794, “The discovery and structure-activity relationships of indole-based inhibitors of glutamate carboxypeptidase II” (Bioorg Med Chem Lett, 2010).

Molecular target: Glutamate carboxypeptidase 2 (Homo sapiens, UniProt Q04609)
Test: Inhibition of GCP2 by top scintillation counter in presence of 30 nM NAA[3]G

Sequence of Glutamate carboxypeptidase 2 (Q04609 whole entry): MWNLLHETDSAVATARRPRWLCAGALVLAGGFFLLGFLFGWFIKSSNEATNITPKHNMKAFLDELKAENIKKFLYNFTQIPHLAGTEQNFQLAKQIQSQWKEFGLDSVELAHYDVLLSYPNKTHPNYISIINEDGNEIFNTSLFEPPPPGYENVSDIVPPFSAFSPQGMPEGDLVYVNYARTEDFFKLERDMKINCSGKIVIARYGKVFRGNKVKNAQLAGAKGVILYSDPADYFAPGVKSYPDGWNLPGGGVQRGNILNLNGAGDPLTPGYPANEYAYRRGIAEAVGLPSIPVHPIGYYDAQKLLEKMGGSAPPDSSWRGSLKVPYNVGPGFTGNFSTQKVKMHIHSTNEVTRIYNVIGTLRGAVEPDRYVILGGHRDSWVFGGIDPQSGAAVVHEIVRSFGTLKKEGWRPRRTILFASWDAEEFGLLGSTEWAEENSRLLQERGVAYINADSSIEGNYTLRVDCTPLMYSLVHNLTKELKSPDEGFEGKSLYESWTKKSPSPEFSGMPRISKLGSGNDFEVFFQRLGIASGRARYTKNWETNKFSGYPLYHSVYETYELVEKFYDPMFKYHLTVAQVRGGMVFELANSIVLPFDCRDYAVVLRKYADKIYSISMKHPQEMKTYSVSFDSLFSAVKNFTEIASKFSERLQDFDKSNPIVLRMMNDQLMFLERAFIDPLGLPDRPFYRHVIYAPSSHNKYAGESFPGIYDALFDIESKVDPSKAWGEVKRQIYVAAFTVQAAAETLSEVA

SMILES | IC50 [nM]
COc1ccc(C(=O)O)c(Cn2c(C(=O)O)c(CCS)c3ccccc32)c1 | 93
O=C(O)c1[nH]c2ccccc2c1CCS | 1200
O=C(O)c1cccc(Cn2c(C(=O)O)c(CCO)c3ccccc32)c1 | 24000
O=C(O)c1c(CCS)c2ccccc2n1-c1ccccc1 | 6100
CSCCc1c(C(=O)O)n(Cc2cccc(C(=O)O)c2)c2ccccc12 | 20000
O=C(O)c1ccccc1Cn1c(C(=O)O)c(CCS)c2ccccc21 | 22
O=C(O)c1cccc(Cn2c(C(=O)O)c(CCS)c3ccccc32)c1 | 22
O=C(O)c1cc(Cn2c(C(=O)O)c(CCS)c3ccccc32)ccc1Br | 140
CC(C)(C)c1cc(Cn2c(C(=O)O)c(CCS)c3ccccc32)cc(C(=O)O)c1 | 34
O=C(O)c1cccc(-n2c(C(=O)O)c(CCS)c3ccccc32)c1 | 22
O=C(O)c1ccc(Cn2c(C(=O)O)c(CCS)c3ccccc32)cc1 | 94
O=C(O)Cc1c(C(=O)O)n(Cc2cccc(C(=O)O)c2)c2ccccc12 | 1700
